Tested on: tyrosinase de champignons
Assay: Inhibition of the dopa-oxidase activity of mushroom tyrosinase (dopachrome formation followed by visible spectrometry at 475 nm)
Format: biochemical
Description: Un test a mis en évidence l'activité de l'octopirox comme inhibiteur de la tyrosinase par évaluation de son effet inhibiteur sur l'activité dopa-oxydase de la tyrosinase des mélanocytes de champignons.
Selon ce test, on suit par spectrométrie visible à 475 nm la quantité de dopachrome formée au cours de la chaîne de réaction de transformation de la tyrosine en mélanine, en fonction du temps. Ces réactions sont catalysées in vitro par la tyrosinase de champignons, en présence d'un co-substrat réducteur (la L-dopa en petite quantité) pour initier la réaction d'hydroxylation de la L-tyrosine en L-dopa, laquelle est ensuite oxydée catalytiquement en dopaquinone puis en dopachrome, produit intermédiaire avant les réactions d'oxydation non enzymatiques aboutissant à la formation de mélanine.
Le milieu réactionnel utilisé pour réaliser ce test comprend 1 ml d'une solution de L-tyrosine à 2.10^-3 M dans du tampon phosphate 0,1 M de pH = 6,5, 0,1 ml de solution de L-dopa à 10^-4 M dans le tampon phosphate, 0,05 ml de solution de tyrosinase de champignons à 2.400 unités/ml dans le tampon phosphate et 1,85 ml de solution de l'inhibiteur à 10^-2 M dans le tampon phosphate. Pour le témoin, la quantité d'inhibiteur a été remplacée par de l'éthanol. […]
La concentration de 10^-2 M d'octopirox dans le milieu réactionnel correspond à une quantité équimolaire par rapport à la tyrosine utilisée. […]

Cc1cc(CC(C)CC(C)(C)C)n(O)c(=O)c1 (centres unmarked) [octopirox, 1-hydroxy-4-méthyl-6-(2,4,4-triméthylpentyl)-2(1H)-pyridinone]
temps pour obtenir le même pourcentage de dopachrome formée, par exemple 100 % (inhibitor solution 10^-2 M in phosphate buffer 0,1 M pH 6,5, L-tyrosine 2.10^-3 M, L-dopa 10^-4 M, control (ethanol) 9,5 minutes, figure 1 curves (b)): 14 min | quantité de dopachrome formée au cours du temps (inhibitor solution 10^-2 M, compared with control curve (a), figure 1, result in words): net ralentissement de la quantité de dopachrome formée au cours du temps
